Experimental data published in PubChem BioAssay AID816 (SRMLSC, 2007).
Active and inactive are the calls of the source. How the calls were made is not given here.

The molecules below were run on S. cerevisiae GAL1 promoter reporter activation counterscreen (assay: GAL1 promoter activators in yeast, artefact control for yeast lifespan extension project, S. cerevisiae (AID 816);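 further: yeast growth read after 24 h of incubation with compounds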).

**Q.** How did the EC50 turn out when `CCOC(=O)CC1=NN(c2ccccc2)C(=O)/C1=C\c1ccc(OC)cc1OC` was run?
**A.** > 40 µM (inactive)

**Q.** How did the EC50 turn out when `Cc1ccc(C(=O)/C=C\C(=O)c2ccc(C)cc2)cc1` was run?
**A.** > 40 µM (inactive)

**Q.** With `Fc1cccc2sc(Nc3nnc(-c4ccccc4)o3)nc12` as the molecule, how does the EC50 read?
**A.** > 40 µM (inactive)

**Q.** With `COc1cccc(CSc2nc3ccccc3cc2C=O)c1` as the molecule, how does the EC50 read?
**A.** > 40 µM (inactive)

**Q.** `COc1ccc(-c2cc(C(F)(F)F)nc(S(C)(=O)=O)n2)cc1` was tested. Which EC50 did it give?
**A.** > 40 µM (inactive)

**Q.** With `COC(=O)CSc1ncccc1-c1nc2ccccc2[nH]1` as the molecule, how does the EC50 read?
**A.** > 40 µM (inactive)

**Q.** With `CCN1C(=O)/C(=C/N(C(C)=O)c2ccccc2)N(c2ccccc2)C1=S` as the molecule, how does the EC50 read?
**A.** > 40 µM (inactive)

**Q.** For `CCCn1c(SCC(=O)c2ccc3c(c2)NC(=O)CO3)nc2ccccc21`, which EC50 is on record?
**A.** > 40 µM (inactive)

**Q.** `CCOC(=O)c1nnn(-c2nonc2N)c1CN1CCc2ccccc2C1` was tested. Which EC50 did it give?
**A.** > 40 µM (inactive)

**Q.** How did the EC50 turn out when `Cn1c(=O)c2c(nc(Br)n2Cc2ccc3ccccc3c2)n(C)c1=O` was run?
**A.** > 40 µM (inactive)

**Q.** For `Cc1ccc(CNc2nc3ccccc3s2)s1`, which EC50 is on record?
**A.** > 40 µM (inactive)
